Assay results: patent US10858331B1, “Ester nitrates derivatives of aromatic aldehydes with multiple pharmalogic properties to treat sickle cell disease” (VIRGINIA COMMONWEALTH UNIVERSITY, priority 2013, dated 2020)

Columns and labels:
Hb = target: T1, Hb (Homo sapiens, UniProt P68871+P69905); assay: Oxygen equilibrium curve (OEC) study with normal whole blood (AA); type: cell-based; conditions: 2 mM compound, 1.5 h incubation; for P50: 37° C.; for ΔP50: versus DMSO control
T1 construct: normal whole blood (AA); from tissue; host or cells: normal whole blood (AA), red blood cells
T1 sequence (P69905 2-142 limits assumed): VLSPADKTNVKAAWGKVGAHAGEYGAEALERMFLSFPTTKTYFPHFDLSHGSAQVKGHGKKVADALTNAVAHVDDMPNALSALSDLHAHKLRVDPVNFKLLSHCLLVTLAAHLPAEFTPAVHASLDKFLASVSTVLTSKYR
T1 sequence (P68871 2-147 limits assumed): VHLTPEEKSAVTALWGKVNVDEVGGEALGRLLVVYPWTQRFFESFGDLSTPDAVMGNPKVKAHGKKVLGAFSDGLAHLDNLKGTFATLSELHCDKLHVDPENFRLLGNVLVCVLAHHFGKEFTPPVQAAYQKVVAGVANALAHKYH
Procedure: (§1) Studies were performed on compounds TD-7, TD-7-1, TD-8, TD-8-1, TD-9 and TD-9-1 using 100 mM stock solution in DMSO and normal whole blood (AA). TD-7, TD-8 and TD-9 are compounds with a hydroxymethyl group on the pyridine ring, while TD-7-1, TD-8-1 and TD-9-1 are the respective nitrate ester derivatives. The whole blood samples had hematocrit values ranging from 29-36%, and cell-free purified Hb of 10-12 g/dL in the absence or presence of effectors solubilized in DMSO at 2 mM or in some cases with varying compound concentration. The blood samples were incubated in an IL 237 tonometer (Instrumentation Laboratories, Inc., Lexington, Mass.) for about 5-7 min at 37° C. against a gas mixture containing O2 concentrations of 0.804%, 2.935% and 5.528% and allowed to equilibrate at O2 tensions of 6, 20 and 40 mmHg. After equilibration, the sample was removed via syringe and aspirated into a ABL 700 series table top automated blood gas analyzer (Radiometer America, Inc., Westlake, Ohio) to determine total hemoglobin (tHb), hematocrit (Hct), pH, pCO2, partial pressure of oxygen (pO2), and the Hb oxygen saturation values (sO2). Similar procedures were followed for concentration and time dependence studies. The measured values of pO2 and sO2 at each oxygen saturation level were then subjected to a non-linear regression analysis using the program Scientist (Micromath, Salt Lake City, Utah) with the following equation: […]
This equation was used to calculate P50 and Hill coefficient (N) values. Corresponding control experiments without the test compound (P50control) but containing DMSO were also performed.

[1] = NO release study (Griess assay) in presence of L-cysteine; conditions: for NO2− release after 16 hours / NO2− release after 1 hour: 2 mM compound solution mixed with 36 mM L-cysteine, phosphate buffer pH 7.4, 37° C., anaerobic; for NO release in the form of NO2− (rank among the compounds): comparison of the four nitrate esters
Procedure: Griess assay was performed on the left-shifting nitrate ester compounds (TD-1, […], TD-8-1 and, TD-9-1) to measure the release of NO. Griess assay is a colorimetric assay, used for detection of NO in the form of nitrite ions (NO2^−). NO released in solution is highly unstable, with a half-life of 1 to 30 s. It gets rapidly oxidized to NO2^− which is detected by the Griess reagent. In this method, NO2^−, first reacts with the sulfanilamide present in the reagent to form a transient diazonium salt. […] Sodium nitrite (NaNO2) was used as a standard for the Griess assay. NaNO2 samples in deionized water were prepared of concentrations within the linear range of the assay (1-100 μM). The samples were incubated for 30 min at 37° C., after which Griess reagent was added and absorbance was measured at 540 nm. The measured absorbances were used to obtain a standard curve (FIG. 3). For the measurement of NO2^− release for all the test compounds (TD-1, TD-7-1, TD-8-1 and TD-9-1), the absorbances were extrapolated from the standard NaNO2 curve.
In this assay, a solution of the test compound (1 mL of a 2 mM solution in 0.1 M phosphate buffer (pH 7.4)) was mixed thoroughly with a freshly prepared solution of L-cysteine (1 mL of a 36 mM solution in 0.1 M phosphate buffer, pH 7.4), and incubated at 37° C., for 1 and 16 h under anaerobic conditions. After exposure to air for 10 min at 25° C., an aliquot of the Griess reagent (1 mL) [freshly prepared by mixing equal volumes of 1.0% sulfanilamide (prepared and stored in aqueous 5% phosphoric acid) and 0.1% N-naphthylethylenediamine dihydrochloride in water] was added to an equal volume (1 mL) of each incubation solution after mixing. After 10 min, absorbance was measured at 540 nm using a Hewlett Packard (Agilent) 8453 UV-visible Spectroscopy. NaNO2 solutions of 1-100 μM concentrations were used to prepare a standard nitrite curve of absorbance […] versus concentration (μM). The NO released (quantitated as NO2^− release in μM) was calculated from the standard nitrite curve by extrapolation of the absorbance. […]

cell-free Hb = target: T2, cell-free Hb (Homo sapiens, UniProt P68871+P69905); assay: OEC study with normal cell-free Hb; type: biochemical; conditions: cell-free Hb 12 mg/mL, 2 mM compound; for N (Hill coefficient) / P50: n = 1; for ΔP50: versus control P50 12.5
T2 construct: Hemoglobin was prepared from centrifuging human blood; from tissue; host or cells: human blood (red cells lysed, Hb purified on DEAE sephacel)
T2 sequence (P69905 2-142 limits assumed): as the sequence (P69905 2-142 limits assumed) above
T2 sequence (P68871 2-147 limits assumed): as the sequence (P68871 2-147 limits assumed) above
Procedure: as §1
Hemoglobin was prepared from centrifuging human blood at 2500 rpms for 20 min at 4° C. The supernatant solution, debris and plasma were discarded from the centrifuge bottles, leaving behind RBCs. The RBCs were washed thrice with an excess volume of 0.9% NaCl, and once with 1.0% NaCl, each time centrifuging and discarding the supernatant solution. The RBCs were pooled together into a chilled flask and hemolyzed to free Hb by adding 1-2 volume excess of 50 mM Tris buffer, pH 8.6 (containing EDTA). The mixture was allowed to stand in ice for 30 min with occasional stirring. The Hb solution was centrifuged at 10,000 rpm for 2 h at 4° C. The supernatant Hb solution was pooled into a chilled flask and NaCl (40-60 mg/mL Hb solution) was slowly added with stirring. Hemoglobin solution was centrifuged at 10,000 rpm for 2 h at 4° C. to remove any cell stroma remnants. The clear supernatant Hb solution was pooled into a chilled flask and the “syrupy” pellet was discarded. Hemoglobin solution was dialyzed against 50 mM Tris buffer, pH 8.6 (containing EDTA) at 4° C. to remove NaCl and/or other low molecular weight impurities. Strips of standard cellulose dialysis tubing that had been washed 3-4 times and boiled for 10 min in deionized water were used for dialysis. The dialyzed Hb was further purified by ion-exchange chromatography using DEAE sephacel to exclude 2,3-DPG. The resin was equilibrated with 50 mM Tris buffer, pH 8.6, and the Hb solution was run through the column with 50 mM Tris buffer, pH 8.6 (containing EDTA). The pooled fractions were concentrated with an Amicon stirred cell (Amicon, Model 402), to a final HbA concentration of about 80-120 mg/mL. Concentrated HbA was stored at −80° C.
As a result of the low left-shifting activities of TD-8 and TD-9, as well as the nitrate ester derivatives, we further evaluated the activity of the compounds TD-1, TD-7, TD-7-1, TD-8, and TD-9 using cell-free Hb (devoid of any proteins, enzymes, plasma and cell membranes) to determine whether plasma protein or RBC membrane could have any effect on compound biological activity. Previous studies have shown limited effect of plasma protein and RBC membrane on SHMF activity. The same tonometry procedure used on whole blood was used with the cell-free hemoglobin using 2 mM compound and 12 mg/mL of Hb.

SS cells = assay: In vitro RBC anti-sickling (morphological) study with SS cells; type: cell-based, human
Procedure: In vitro RBC morphological (anti-sickling) analysis was conducted at the Children's Hospital of Philadelphia (by Drs. Toshio Asakura and Osheiza Abdulmalik). The anti-sickling effects of 5HMF, TD-7 HCl, TD-7, TD-1, and TD-7-1 were studied by incubating suspensions of SS cells in the absence or presence of three different concentrations of the effectors in the presence of air for 1 h at 37° C. followed by incubation under 4% oxygen at 37° C. for 5 h. All samples were pre-incubated for 1 h with various compounds and then incubated under 4% O2 for 5 h. […] Table 5 represents the concentrations of the effectors along with the % inhibition of sickling cells. The hemolysates that had been prepared from SS cells after incubation with test compounds were also subjected to cation-exchange HPLC as previously reported (Abdulmalik et al., 2005).

COc1ccc(C=O)c(OCc2cccc(CO[N+](=O)[O-])n2)c1 [TD-9-1, (6-((2-Formyl-5-methoxyphenoxy)methyl)pyridin-2-yl)methyl nitrate]
N (Hill coefficient) (Hb): 1.9^d† | P50 (Hb): 28.6^d† mmHg | ΔP50 (Hb): −2.7 mmHg | NO2− release after 16 hours [1]: 78.66 µM

COc1ccc(OCc2cccc(CO[N+](=O)[O-])n2)c(C=O)c1 [TD-7-1, (6-((2-Formyl-4-methoxyphenoxy)methyl)pyridin-2-yl)methyl nitrate]
N (Hill coefficient) (cell-free Hb): 2.1 | P50 (cell-free Hb): 7.7 mmHg | ΔP50 (cell-free Hb): −3.9 mmHg | N (Hill coefficient) (Hb): 1.7 ± 0.1^c† | P50 (Hb): 23.4 ± 1.6^c† mmHg | ΔP50 (Hb): −7.9 mmHg | inhibition at 500 µM (SS cells; Homo sapiens, 0.5 mM, SS cells, 1 h air then 4% O2, 37° C., 5 h, read-out: Inhibition of sickled cells): 72% | inhibition at 1000 µM (SS cells; Homo sapiens, 1.0 mM, SS cells, 1 h air then 4% O2, 37° C., 5 h, read-out: Inhibition of sickled cells): 100% | inhibition at 2000 µM (SS cells; Homo sapiens, 2.0 mM, SS cells, 1 h air then 4% O2, 37° C., 5 h, read-out: Inhibition of sickled cells): 100% | Hemolysis of RBC (SS cells; at higher drug concentrations): hemolyzed the RBC at higher drug concentrations | NO2− release after 1 hour [1]: 7.61 µM | NO2− release after 16 hours [1]: 59.25 µM

O=Cc1ccc(CO[N+](=O)[O-])o1 [TD-1, 5-Nitrooxymethyl furfural]
N (Hill coefficient) (cell-free Hb): 2.0 | P50 (cell-free Hb): 8.4 mmHg | ΔP50 (cell-free Hb): −4.1 mmHg | N (Hill coefficient) (Hb): 1.9 ± 0.1^c† | P50 (Hb): 27.4 ± 2.3^c† mmHg | ΔP50 (Hb): −3.9 mmHg | Anti-sickling effect (in words) (SS cells; SS cells, 4% O2, 5 h, concentration not given, in comparison with 5HMF): only a modest decrease in the anti-sickling effect | NO2− release after 1 hour [1]: 4.02 µM | NO release in the form of NO2− (rank among the compounds) [1]: least release

COc1ccc(C=O)cc1OCc1cccc(CO[N+](=O)[O-])n1 [TD-8-1, (6-((5-Formyl-2-methoxyphenoxy)methyl)pyridin-2-yl)methyl nitrate]
N (Hill coefficient) (Hb): 2.1^d† | P50 (Hb): 30.8^d† mmHg | ΔP50 (Hb): −0.5 mmHg | NO2− release after 16 hours [1]: 102.54 µM | NO release in the form of NO2− (rank among the compounds) [1]: most release
